What was measured:
Type in all cases: in vivo
[1] = system: Pyrenophora teres (Helminthosporium); assay: Assay B-10: Effect against Pyrenophora teres (Helminthosporium)/barley (net blotch on barley); conditions: Pyrenophora teres on barley cv. Regina; 0.02% active substance, spray
Method: Assay B-10: Effect Against Pyrenophora teres (Helminthosporium)/Barley (Net Blotch on Barley) 1 week old barley plants cv. Regina are treated with a formulated testcompound (0.02% active substance) in a spray chamber. Two days after application barley plants are inoculated by spraying a spore suspension (3×10^4 conidia/ml) on the test plants. After an incubation period of 2 days at 20° C. and 95% r.h. plants are kept for 2 days at 20° C. and 60% r.h. in a greenhouse. The disease incidence is assessed 4 days after inoculation.

Septoria nodorum = assay: Assay B-12: Effect against Septoria nodorum/wheat (Septoria leaf spot on wheat); conditions: Septoria nodorum on wheat cv. Arina; 0.02% active substance, spray
Method: Assay B-12: Effect Against Septoria nodorum/Wheat (Septoria Leaf Spot on Wheat) 1 week old wheat plants cv. Arina are treated with a formulated test compound (0.02% active substance) in a spray chamber. One day after application wheat plants are inoculated by spraying a spore suspension (5×10^5 conidia/ml) on the test plants. After an incubation period of 1 day at 20° C. and 95% r.h. plants are kept for 10 days at 20° C. and 60% r.h. in a greenhouse. The disease incidence is assessed 11 days after inoculation.

Botrytis cinerea [2] = assay: Assay B-8: Effect against Botrytis cinerea/tomato (Botrytis on tomatoes); conditions: Botrytis cinerea on tomato cv. Roter Gnom; 0.02% active substance, spray
Method: Assay B-8: Effect Against Botrytis cinerea/Tomato (Botrytis on Tomatoes) 4 week old tomato plants cv. Roter Gnom are treated with the formulated testcompound 0.02% active substance) in a spray chamber. Two days after application tomato plants are inoculated by spraying a spore suspension (1×10^5 conidia/ml) on the test plants. After an incubation period of 4 days at 20° C. and 95% r. h. in a greenhouse the disease incidence is assessed.

Botrytis cinerea [3] = assay: Assay B-7: Botrytis cinerea/grape (Botrytis on grapes); conditions: Botrytis cinerea on grape seedlings cv. Gutedel; 0.02% active substance, spray
Method: Assay B-7: Botrytis cinerea/Grape (Botrytis on Grapes) 5 week old grape seedlings cv. Gutedel are treated with the formulated testcompound (0.02% active substance) in a spray chamber. Two days after application grape plants are inoculated by spraying a spore suspension (1×10^6 conidia/ml) on the test plants. After an incubation period of 4 days at 21° C. and 95% r. h. in a greenhouse the disease incidence is assessed.

Compound	B10 activity [1]	B12 activity (Septoria nodorum)	B8 activity (Botrytis cinerea [2])	B7 activity (Botrytis cinerea [3])
NCCNc1cc(-c2ccnc(Nc3cccc(Cl)c3)n2)ccn1 [Compound 1]	+ (the activity observed in the corresponding test system is 70% or more)			
Clc1cccc(Nc2nccc(-c3ccnc(NC4CCOC4)c3)n2)c1 (stereo not shown) [Compound 2]	+ (the activity observed in the corresponding test system is 70% or more)	+ (the activity observed in the corresponding test system is 70% or more)		
O=C(O)CNc1cc(-c2ccnc(Nc3cccc(Cl)c3)n2)ccn1 [Compound 3]	+ (the activity observed in the corresponding test system is 70% or more)	+ (the activity observed in the corresponding test system is 70% or more)	+ (the activity observed in the corresponding test system is 70% or more)	
CC(CCn1ccnc1)Nc1cc(-c2ccnc(Nc3cccc(Cl)c3)n2)ccn1 (stereo not shown) [Compound 16]	+ (the activity observed in the corresponding test system is 70% or more)	+ (the activity observed in the corresponding test system is 70% or more)	+ (the activity observed in the corresponding test system is 70% or more)	
CC(CCN(C)C)Nc1cc(-c2ccnc(Nc3cccc(Cl)c3)n2)ccn1 (stereo not shown) [Compound 19]			+ (the activity observed in the corresponding test system is 70% or more)	
CCOCCNc1cc(-c2ccnc(Nc3cccc(Cl)c3)n2)ccn1 [Compound 26]	+ (the activity observed in the corresponding test system is 70% or more)	+ (the activity observed in the corresponding test system is 70% or more)	+ (the activity observed in the corresponding test system is 70% or more)	+ (the activity observed in the corresponding test system is 70% or more)
CCCC(CO)Nc1cc(-c2ccnc(Nc3cccc(Cl)c3)n2)ccn1 (stereo not shown) [Compound 27]	+ (the activity observed in the corresponding test system is 70% or more)	+ (the activity observed in the corresponding test system is 70% or more)	+ (the activity observed in the corresponding test system is 70% or more)	+ (the activity observed in the corresponding test system is 70% or more)
CC(CCNc1cc(-c2ccnc(Nc3cccc(Cl)c3)n2)ccn1)n1ccnc1 (stereo not shown) [Compound 36]	+ (the activity observed in the corresponding test system is 70% or more)			
NCCCNc1cc(-c2ccnc(Nc3cccc(Cl)c3)n2)ccn1 [Compound 42]	+ (the activity observed in the corresponding test system is 70% or more)	+ (the activity observed in the corresponding test system is 70% or more)	+ (the activity observed in the corresponding test system is 70% or more)	
CS(=O)(=O)O.NCCCNc1cc(-c2ccnc(Nc3cccc(Cl)c3)n2)ccn1 [Compound 48]	+ (the activity observed in the corresponding test system is 70% or more)	+ (the activity observed in the corresponding test system is 70% or more)	+ (the activity observed in the corresponding test system is 70% or more)	
CCC(COC(C)=O)Nc1cc(-c2ccnc(Nc3cccc(Cl)c3)n2)ccn1 (stereo not shown) [Compound 51]	+ (the activity observed in the corresponding test system is 70% or more)	+ (the activity observed in the corresponding test system is 70% or more)		
CC(=O)OCCNc1cc(-c2ccnc(Nc3cccc(Cl)c3)n2)ccn1 [Compound 52]	+ (the activity observed in the corresponding test system is 70% or more)	+ (the activity observed in the corresponding test system is 70% or more)		
CCCC(COC(C)=O)Nc1cc(-c2ccnc(Nc3cccc(Cl)c3)n2)ccn1 (stereo not shown) [Compound 53]			+ (the activity observed in the corresponding test system is 70% or more)	
CCCCC(=O)Nc1cc(-c2ccnc(Nc3cccc(Cl)c3)n2)ccn1 [Compound 62]	+ (the activity observed in the corresponding test system is 70% or more)	+ (the activity observed in the corresponding test system is 70% or more)		
CC(CCc1ccccn1)Nc1cc(-c2ccnc(Nc3cccc(Cl)c3)n2)ccn1 (stereo not shown) [Compound 71]	+ (the activity observed in the corresponding test system is 70% or more)	+ (the activity observed in the corresponding test system is 70% or more)		
C[S+]([O-])CCNc1cc(-c2ccnc(Nc3cccc(Cl)c3)n2)ccn1 (stereo not shown) [Compound 74]		+ (the activity observed in the corresponding test system is 70% or more)		
CC(O)CNc1cc(-c2ccnc(Nc3cccc(Cl)c3)n2)ccn1 (stereo not shown) [Compound 76]	+ (the activity observed in the corresponding test system is 70% or more)	+ (the activity observed in the corresponding test system is 70% or more)		
Clc1cccc(Nc2nccc(-c3ccnc(NCc4ccco4)c3)n2)c1 [Compound 78]			+ (the activity observed in the corresponding test system is 70% or more)	
Clc1cccc(Nc2nccc(-c3ccnc(NCc4ccccn4)c3)n2)c1 [Compound 79]	+ (the activity observed in the corresponding test system is 70% or more)		+ (the activity observed in the corresponding test system is 70% or more)	
Clc1cccc(Nc2nccc(-c3ccnc(NCC4CCOC4)c3)n2)c1 (stereo not shown) [Compound 84]	+ (the activity observed in the corresponding test system is 70% or more)	+ (the activity observed in the corresponding test system is 70% or more)	+ (the activity observed in the corresponding test system is 70% or more)	
COC(CNc1cc(-c2ccnc(Nc3cccc(Cl)c3)n2)ccn1)OC [Compound 87]	+ (the activity observed in the corresponding test system is 70% or more)	+ (the activity observed in the corresponding test system is 70% or more)		
Clc1cccc(Nc2nccc(-c3ccnc(NCCc4ccccn4)c3)n2)c1 [Compound 90]	+ (the activity observed in the corresponding test system is 70% or more)		+ (the activity observed in the corresponding test system is 70% or more)	
COCN(C)c1cc(-c2ccnc(Nc3cccc(Cl)c3)n2)ccn1 [Compound 91]	+ (the activity observed in the corresponding test system is 70% or more)	+ (the activity observed in the corresponding test system is 70% or more)		
O=C(Nc1cc(-c2ccnc(Nc3cccc(Cl)c3)n2)ccn1)C(F)(F)C(F)(F)F [Compound 93]	+ (the activity observed in the corresponding test system is 70% or more)		+ (the activity observed in the corresponding test system is 70% or more)	+ (the activity observed in the corresponding test system is 70% or more)
Clc1cccc(Nc2nccc(-c3ccnc(NCCCOc4ncccn4)c3)n2)c1 [Compound 94]	+ (the activity observed in the corresponding test system is 70% or more)		+ (the activity observed in the corresponding test system is 70% or more)	
CN(C)C=Nc1cc(-c2ccnc(Nc3cccc(Cl)c3)n2)ccn1 [Compound 97]	+ (the activity observed in the corresponding test system is 70% or more)	+ (the activity observed in the corresponding test system is 70% or more)	+ (the activity observed in the corresponding test system is 70% or more)	
CCN(COC)c1cc(-c2ccnc(Nc3cccc(Cl)c3)n2)ccn1 [Compound 98]	+ (the activity observed in the corresponding test system is 70% or more)			
CO[Si](CCCNc1cc(-c2ccnc(Nc3cccc(Cl)c3)n2)ccn1)(OC)OC [Compound 100]			+ (the activity observed in the corresponding test system is 70% or more)	
Clc1cccc(Nc2nccc(-c3ccnc(NCc4cccnc4)c3)n2)c1 [Compound 102]	+ (the activity observed in the corresponding test system is 70% or more)		+ (the activity observed in the corresponding test system is 70% or more)	
CCC(=O)OCCCNc1cc(-c2ccnc(Nc3cccc(Cl)c3)n2)ccn1 [Compound 106]	+ (the activity observed in the corresponding test system is 70% or more)	+ (the activity observed in the corresponding test system is 70% or more)	+ (the activity observed in the corresponding test system is 70% or more)	
